Assay results taken from patent EP0490380B1, “Use of N,N'-bis 3-(ethylamino)propyl -1,7-heptanediamine and a cytotoxic agent” (MERRELL PHARMACEUTICALS INC., priority 1990, dated 1992).
Like-named read-outs stand apart in the source and are kept apart here. Marks after values point to notes of the source that are not given here.

What was measured:
[1] = system: MCA38 (mouse colon adenocarcinoma); test: Cell viability by colorimetric MTT assay after 96 hour incubation, MCA38 cells; type: cell-based; conditions: for IC50: Mus musculus, 96 h
Procedure: (§1) In addition, the Fractional Inhibitory Concentration (FIC) for the various treatments was calculated. FIC's are an accepted measurement of synergy [Middleton and Westmacott, J.Antimicrobial Chemother. […] For two interacting drugs, the sum of the FIC's of each of the treatments expresses the extent of the synergistic interaction.
(§2) Where FIC is less than 1, there is synergy between the two treatments, where FIC is 1, there is no synergy (additive effect). The smaller the value for FIC, the greater the synergistic interaction.

HeLa cells = test: Cell viability by colorimetric MTT assay after 96 hour incubation, HeLa cells; type: cell-based; conditions: for IC50: Homo sapiens, HeLa
Procedure: as §1, §2

L1210 Leukemia = test: Conjunctive therapy of L1210 leukemia in vivo (survival); conditions: BDF1 male mice, 10^5 L1210 cells i.p. day 0, control 7.6±0.5
Procedure: Groups of 5 mice (BDF1 male) were inoculated i.p. with 10^5 L1210 leukemia cells on day 0. Vinblastine was administered at 0.5 mg/kg, i.p., on day 3. The compound N,N'-bis(3-(ethylamino) propyl]-1,7-heptanediamine was administered at 5 mg/kg, every 3 hours, 4 times per day, on days 4 and 5. Control group received no treatment after inoculation. Relative survival time was determined and expressed as % T/C (mean survival time treated/mean survival time control x 100). The results of these studies are presented in Table 1. Table 1

COc1cccc2c1C(=O)c1c(O)c3c(c(O)c1C2=O)C[C@@](O)(C(=O)CO)C[C@@H]3O[C@H]1C[C@H](N)[C@H](O)[C@H](C)O1 [Adriamycin, adriamycin]
IC50 ([1]; MCA 38 cells, 28,314 at 0 µg/mL (adriamycin alone), read-out: IC50 Adriamycin): 7.9 ng/mL
IC50 ([1]; MCA 38 cells, 28,314 at 0.39 µg/mL, read-out: IC50 Adriamycin): 7.5 ng/mL
IC50 ([1]; MCA 38 cells, 28,314 at 0.78 µg/mL, read-out: IC50 Adriamycin): 7.3 ng/mL
IC50 ([1]; MCA 38 cells, 28,314 at 1.563 µg/mL, read-out: IC50 Adriamycin): 7 ng/mL
IC50 ([1]; MCA 38 cells, 28,314 at 3.125 µg/mL, read-out: IC50 Adriamycin): 6.3 ng/mL
IC50 ([1]; MCA 38 cells, 28,314 at 6.25 µg/mL, read-out: IC50 Adriamycin): 2.5 ng/mL
IC50 ([1]; MCA 38 cells, 28,314 at 12.5 µg/mL, read-out: IC50 Adriamycin): 1.8 ng/mL
IC50 (HeLa cells; 96 h, 28,314 at 0 µg/mL (adriamycin alone), read-out: IC50 Adriamycin): 8.6 ng/mL
IC50 (HeLa cells; 96 h, 28,314 at 0.2 µg/mL, read-out: IC50 Adriamycin): 6.7 ng/mL
IC50 (HeLa cells; 96 h, 28,314 at 0.39 µg/mL, read-out: IC50 Adriamycin): 5.8 ng/mL
IC50 (HeLa cells; 96 h, 28,314 at 0.78 µg/mL, read-out: IC50 Adriamycin): 4.8 ng/mL
IC50 (HeLa cells; 96 h, 28,314 at 1.5625 µg/mL, read-out: IC50 Adriamycin): 1.5 ng/mL

Nc1ccn([C@@H]2O[C@H](CO)[C@@H](O)[C@@H]2O)c(=O)n1 [AraC, cytarabine]
IC50 ([1]; MCA 38 cells, 28,314 at 0 µg/mL (AraC alone), read-out: IC50 AraC): 660 ng/mL
IC50 ([1]; MCA 38 cells, 28,314 at 0.1563 µg/mL, read-out: IC50 AraC): 596 ng/mL
IC50 ([1]; MCA 38 cells, 28,314 at 0.3125 µg/mL, read-out: IC50 AraC): 488 ng/mL
IC50 ([1]; MCA 38 cells, 28,314 at 0.625 µg/mL, read-out: IC50 AraC): 360 ng/mL
IC50 ([1]; MCA 38 cells, 28,314 at 1.25 µg/mL, read-out: IC50 AraC): 230 ng/mL
IC50 ([1]; MCA 38 cells, 28,314 at 2.5 µg/mL, read-out: IC50 AraC): 71 ng/mL
IC50 (HeLa cells; 96 h, 28,314 at 0 µg/mL (AraC alone), read-out: IC50 AraC): 1020 ng/mL
IC50 (HeLa cells; 96 h, 28,314 at 0.1563 µg/mL, read-out: IC50 AraC): 630 ng/mL
IC50 (HeLa cells; 96 h, 28,314 at 0.3125 µg/mL, read-out: IC50 AraC): 600 ng/mL
IC50 (HeLa cells; 96 h, 28,314 at 0.625 µg/mL, read-out: IC50 AraC): 530 ng/mL
IC50 (HeLa cells; 96 h, 28,314 at 1.25 µg/mL, read-out: IC50 AraC): 370 ng/mL
IC50 (HeLa cells; 96 h, 28,314 at 2.5 µg/mL, read-out: IC50 AraC): 350 ng/mL
IC50 (HeLa cells; 96 h, 28,314 at 5 µg/mL, read-out: IC50 AraC): 220 ng/mL
IC50 (HeLa cells; 96 h, 28,314 at 10 µg/mL, read-out: IC50 AraC): 150 ng/mL
IC50 (HeLa cells; 96 h, 28,314 at 20 µg/mL, read-out: IC50 AraC): 140 ng/mL
IC50 (HeLa cells; 96 h, 28,314 at 40 µg/mL, read-out: IC50 AraC): 140 ng/mL
IC50 (HeLa cells; 96 h, 28,314 at 80 µg/mL, read-out: IC50 AraC): 140 ng/mL

N.N.[Cl][Pt][Cl] [Cisplatin]
IC50 Cisplatin ([1]; MCA 38 cells, 28,314 at 0 µg/mL (cisplatin alone)): 0.847 µg/mL
IC50 Cisplatin ([1]; MCA 38 cells, 28,314 at 0.2 µg/mL): 0.58 µg/mL
IC50 Cisplatin ([1]; MCA 38 cells, 28,314 at 0.39 µg/mL): 0.387 µg/mL
IC50 Cisplatin ([1]; MCA 38 cells, 28,314 at 0.78 µg/mL): 0.376 µg/mL
IC50 Cisplatin ([1]; MCA 38 cells, 28,314 at 1.56 µg/mL): 0.276 µg/mL
IC50 Cisplatin ([1]; MCA 38 cells, 28,314 at 3.125 µg/mL): 0.177* µg/mL
IC50 Cisplatin ([1]; MCA 38 cells, 28,314 at 6.25 µg/mL): 0.165 µg/mL
IC50 Cisplatin ([1]; MCA 38 cells, 28,314 at 12.5 µg/mL): 0.053 µg/mL
IC50 Cisplatin (HeLa cells; 28,314 at 0 µg/mL (cisplatin alone)): 0.359 µg/mL
IC50 Cisplatin (HeLa cells; 28,314 at 0.39 µg/mL): 0.336 µg/mL
IC50 Cisplatin (HeLa cells; 28,314 at 0.78 µg/mL): 0.276 µg/mL
IC50 Cisplatin (HeLa cells; 28,314 at 1.563 µg/mL): 0.186 µg/mL
IC50 Cisplatin (HeLa cells; 28,314 at 3.125 µg/mL): 0.130 µg/mL
IC50 Cisplatin (HeLa cells; 28,314 at 6.25 µg/mL): 0.088 µg/mL
IC50 Cisplatin (HeLa cells; 28,314 at 12.5 µg/mL): 0.074* µg/mL
IC50 Cisplatin (HeLa cells; 28,314 at 25 µg/mL): 0.068 µg/mL
IC50 Cisplatin (HeLa cells; 28,314 at 50 µg/mL): 0.068 µg/mL
IC50 Cisplatin (HeLa cells; 28,314 at 100 µg/mL): 0.057 µg/mL

CCNCCCNCCCCCCCNCCCNCC [Compound 28,314, N,N'-Bis[3-(ethylamino)propyl]-1,7-heptanediamine]
IC50 ([1]; MCA 38 cells, Table 2 (cisplatin series), read-out: IC50 28,314 alone): 17700 ng/mL
IC50 ([1]; MCA 38 cells, Table 3 (adriamycin series), read-out: IC50 28,314 alone): 25000 ng/mL
IC50 ([1]; MCA 38 cells, Table 4 (AraC series), read-out: IC50 28,314 alone): 3540 ng/mL
IC50 ([1]; MCA 38 cells, Table 5 (vinblastine series), read-out: IC50 28,314 alone): 10000 ng/mL
Mean Survival Time (L1210 Leukemia; 28,314 5 mg/kg every 3 hours, 4 times per day (20 mg/Kg/day), days 4,5): 12.6 ± 0.9 days
IC50 (HeLa cells; 96 h, Table 6 (cisplatin series), read-out: IC50 28,314 alone): ~200000 ng/mL
IC50 (HeLa cells; 96 h, Table 7 (adriamycin series), read-out: IC50 28,314 alone): 1590 ng/mL
IC50 (HeLa cells; 96 h, Table 8 (AraC series), read-out: IC50 28,314 alone): ~160000 ng/mL

CC[C@]1(O)C[C@@H]2CN(CCc3c([nH]c4ccccc34)[C@@](C(=O)OC)(c3cc4c(cc3OC)N(C)[C@H]3[C@@](O)(C(=O)OC)[C@H](OC(C)=O)[C@]5(CC)C=CCN6CC[C@]43[C@@H]65)C2)C1 [Vinblastine, vinblastine]
IC50 ([1]; MCA 38 cells, 28,314 at 0 µg/mL (vinblastine alone), read-out: IC50 Vinblastin): 59.5 ng/mL
IC50 ([1]; MCA 38 cells, 28,314 at 0.1563 µg/mL, read-out: IC50 Vinblastin): 54.8 ng/mL
IC50 ([1]; MCA 38 cells, 28,314 at 0.3125 µg/mL, read-out: IC50 Vinblastin): 43 ng/mL
IC50 ([1]; MCA 38 cells, 28,314 at 0.625 µg/mL, read-out: IC50 Vinblastin): 33 ng/mL
IC50 ([1]; MCA 38 cells, 28,314 at 1.25 µg/mL, read-out: IC50 Vinblastin): 25 ng/mL
IC50 ([1]; MCA 38 cells, 28,314 at 2.5 µg/mL, read-out: IC50 Vinblastin): 15 ng/mL
IC50 ([1]; MCA 38 cells, 28,314 at 5.0 µg/mL, read-out: IC50 Vinblastin): 3 ng/mL
Mean Survival Time (L1210 Leukemia; Vinblastine 0.5 mg/kg i.p. day 3): 10.0 ± 0.7 days
IC50 (HeLa cells; 96 h, 28,314 at 0 µg/mL (vinblastine alone), read-out: IC50 Vinblastin): 1.6 ng/mL
IC50 (HeLa cells; 96 h, 28,314 at 0.1563 µg/mL, read-out: IC50 Vinblastin): 1.33 ng/mL
IC50 (HeLa cells; 96 h, 28,314 at 0.3125 µg/mL, read-out: IC50 Vinblastin): 1.33 ng/mL
IC50 (HeLa cells; 96 h, 28,314 at 0.625 µg/mL, read-out: IC50 Vinblastin): 1.19 ng/mL
IC50 (HeLa cells; 96 h, 28,314 at 1.25 µg/mL, read-out: IC50 Vinblastin): 1.17 ng/mL
IC50 (HeLa cells; 96 h, 28,314 at 2.5 µg/mL, read-out: IC50 Vinblastin): 0.63 ng/mL
IC50 (HeLa cells; 96 h, 28,314 at 5 µg/mL, read-out: IC50 Vinblastin): 0.24 ng/mL
IC50 (HeLa cells; 96 h, 28,314 at 10 µg/mL, read-out: IC50 Vinblastin): 0.11 ng/mL
IC50 (HeLa cells; 96 h, 28,314 at 20 µg/mL, read-out: IC50 Vinblastin): 0.09 ng/mL
